Measurements as given in paper PMC13478508 (Research, 2026).
No end group written: not given here.

Columns and labels:
[1] = tested on: hsKir6.2+maSUR1 KATP channel; experiment: Whole-cell patch clamp of KATP channel currents in transfected FreeStyle 293-F cells; format: cell-based, Homo sapiens (Kir6.2) / Mesocricetus auratus (SUR1); conditions: 1 μM toxin; whole-cell patch clamp at −40 mV; 5 mM BaCl2 baseline; result in words (Fig. 1A, 3H, 5B)
Protocol: KATP constructs were transfected into FreeStyle 293-F cells using polyethylenimine at a cell density of 1 × 10^6 cells/ml. Cells were cultured in FreeStyle 293 Expression Medium with 1% fetal bovine serum for 24 h before recording. Currents were recorded using whole-cell mode at −40 mV in the pipette and an Axon-patch 200B amplifier (Axon Instruments, USA). Patch electrodes were pulled by a horizontal microelectrode puller (P-1000, Sutter Instrument Co, USA) to tip resistance of 2.0 to 3.0 MΩ. Pipette solution containing 107 mM KCl, 1.2 mM MgCl2, 1 mM CaCl2, 10 mM EGTA, 5 mM Hepes (pH 7.2, KOH), and bath solution containing 40 mM KCl, 100 mM NaCl, 2.6 mM CaCl2, 1.2 mM MgCl2, and 5 mM Hepes (pH 7.4, NaOH) were used for measuring inhibitory effect of wild-type and mutant toxins. Application of 5 mM BaCl2 in bath solution was used to block the KATP currents to determine the baseline. Data analysis was carried out using GraphPad Prism 8.0 or 10.4.0.

cryo-EM structure = molecular target: the molecule itself; experiment: cryo-EM structure

Row | Molecule | Inhibition of whole-cell KATP current [1] | stoichiometry N (cryo-EM structure)
1 | Sm3a: toxin from the centipede Scolopendra morsitans (P0DQC2.1), recombinantly expressed; novel KATP channel blocker (AKKEIPYKRQKFPKKSQCIEACANALTNGDKSKITDVKSRFYKCICYYNP; also: two disulfide bonds, pairing not given here for this toxin) | strongly blocks currents | –
2 | human Kir6.2 (Q52E) subunit of the cleaved KATP fusion protein (natural protein, also called hsKir6.2; hsKir6.2 (Q52E)) GPLSRKGIIPEEYVLTRLAEDPAKPRYRARQRRARFVSKKGNCNVAHKNIREEGRFLQDVFTTLVDLKWPHTLLIFTMSFLCSWLLFAMAWWLIAFAHGDLAPSEGTAEPCVTSIHSFSSAFLFSIEVQVTIGFGGRMVTEECPLAILILIVQNIVGLMINAIMLGCIFMKTAQAHRRAETLIFSKHAVIALRHGRLCFMLRVGDLRKSMIISATIHMQVVRKTTSPEGEVVPLHQVDIPMENGVGGNSIFLVAPLIIYHVIDANSPLYDLAPSDLHHHQDLEIIVILEGVVETTGITTQARTSYLADEILWGQRFVPIVAEEDGRYSVDYSKFGNTVKVPTPLCTARQLDEDHSLLEALTLASARGPLRKRSVPMAKAKPKFSISPDSLS | – | 4
